Reference: PubChem BioAssay AID1963832 (Molecular Pharmacology Branch, DTP, NCI, 2024)

Tested on: 885724-159-R-J1-PDC complex spheroid viability
Assay: Anticancer human tumor 885724-159-R-J1-PDC patient-derived pancreatic adenocarcinoma cell line growth inhibition [POLQ]
Conditions: for IC50: curve of first compound; for viability, T/C: stronger effect = lower value
Experimental: Multicellular complex tumor spheroid response to Polymerase (POL) inhibitors (novobiocin, ART-558, RP6685) in combination with a variety of drugs and investigational agents in selected tumor cell lines
The POL inhibitors (novobiocin, ART-558, and RP6685) were evaluated both individually and in combination with standard of care and investigational anticancer small molecules within a complex spheroid model of solid tumors. . Complex spheroids include a stromal component modeled by human endothelial cells (HUVEC) and fibroblasts modeled by human mesenchymal stem cells (MSCs). The concentration ranges selected for each drug and investigational agent were based upon clinically achievable concentrations if the clinical Cmax of the agent was known.
Compounds. The drugs and investigational agents: novobiocin (NSC847541), ART-558 (NSC835418), RP-6685 (NSC848927), peposertib (NSC802822), ceralasertib (NSC780249), elimusertib (NSC800525), camonsertib (NSC841442), AZD-1390 (NSC803789), olaparib (NSC753686), talazoparib (NSC767125), rucaparib (NSC756644), sotorasib (NSC818433), MRTX-1133 (NSC836407), SN-38 (NSC673596), topotecan (NSC609699), epotoside (NSC141540), doxorubicin (NSC123127), gemcitabine (NSC613327), 5-fluorouracil (NSC19893), paclitaxel (NSC125973), vemurafenib (NSC761431), MSA-2 (NSC828583), SN-011 (NSC837082), adavosertib (NSC754352), prexasertib (NSC758257), carboplatin (NSC241240) and oxaliplatin (NSC266046), were obtained from the National Cancer Institute (NCI) Developmental Therapeutics Program Chemical Repository (21). The FDA-approved anticancer drug set is available from the Developmental Therapeutics Program at https://dtp.cancer.gov/organization/dscb/obtaining/. […] The stock solutions were prepared in dimethyl sulfoxide (DMSO, Sigma-Aldrich, St. Louis, MO, cat. D2650), except for the platinum compounds which were prepared in saline (Quality Biological, Gaithersburg, MD, cat. 114-055-101), at 800-fold the tested concentration and stored at -70 degrees C prior to their use. All drugs and investigational agents were tested over a range starting from a high concentration at or near the clinical Cmax and decreasing in half-log increments. If the clinical Cmax for an agent had not been determined, the highest concentration tested was 10 microM, except for SN-38, which was tested at a high concentration of 1 microM.
Cell Culture. All cells were maintained in an incubator at 37 degrees C and 5% CO2 with 95% humidity. The PDC lines were cultured according to standard operating procedures established by the NCI PDMR (https://pdmr.cancer.gov). Table 3 of the manuscript, lists the cell lines along with the number of the three cell types plated to form the mct-spheroids and media for tumor cell growth. After thawing, all PDC lines, except 997537-175-T-J1-PDC and 415267-285-R-J2-PDC, were cultured in Matrigel-coated flasks prepared with a working solution of 1X Ham's F-12 nutrient mix, without supplementation (Thermo Fisher Scientific, cat. 11765054), 100 U/mL penicillin-streptomycin (Thermo Fisher Scientific, cat. 15140122), and 2.5% Matrigel (Corning Inc., Corning, NY, cat. 354248) for the first three passages. The two PDC lines 997537-175-T-J1-PDC and 415267-285-R-J2-PDC were cultured on uncoated flasks. The 857933-349-R-J2-PDC line was cultured in 6C/Colon 1B media containing advanced DMEM/F-12 (Thermo Fisher Scientific, cat. 12634028), 10 mM HEPES (Thermo Fisher Scientific, cat. 15630080), 1X GlutaMAX supplement (Thermo Fisher Scientific, cat. 35050061), 0.1 mg/mL primocin (InvivoGen, San Diego, CA, cat. ant-pm-2), 10% defined fetal bovine serum, heat inactivated (HyClone Laboratories Inc., Logan, UT, cat. SH30070.03HI), 50% L-WRN conditioned media (ATCC, cat. CRL-3276), 1.25 mM N-Acetyl-L-cysteine (Sigma-Aldrich, cat. A9165), 10 mM nicotinamide (Sigma-Aldrich, cat. N0636), 1X B-27 supplement (Thermo Fisher Scientific, cat. 17504044), 1X N-2 supplement (Thermo Fisher Scientific, cat. […]

[1] = second compound 0.0316 µM, first compound 0.00316 µM
[2] = second compound 0.0316 µM, first compound 0.01 µM
[3] = second compound 0.0316 µM, first compound 0.0316 µM
[4] = second compound 0.0316 µM, first compound 0.1 µM
[5] = second compound 0.1 µM, first compound 0.00316 µM
[6] = second compound 0.1 µM, first compound 0.01 µM
[7] = second compound 0.1 µM, first compound 0.0316 µM
[8] = second compound 0.1 µM, first compound 0.1 µM
[9] = second compound 0.316 µM, first compound 0.00316 µM
[10] = second compound 0.316 µM, first compound 0.01 µM
[11] = second compound 0.316 µM, first compound 0.0316 µM
[12] = second compound 0.316 µM, first compound 0.1 µM
[13] = second compound 1 µM, first compound 0.00316 µM
[14] = second compound 1 µM, first compound 0.01 µM
[15] = second compound 1 µM, first compound 0.0316 µM
[16] = second compound 1 µM, first compound 0.1 µM
[17] = second compound 3.16 µM, first compound 0.00316 µM
[18] = second compound 3.16 µM, first compound 0.01 µM
[19] = second compound 3.16 µM, first compound 0.0316 µM
[20] = second compound 3.16 µM, first compound 0.1 µM
[21] = second compound 10 µM, first compound 0.00316 µM
[22] = second compound 10 µM, first compound 0.01 µM
[23] = second compound 10 µM, first compound 0.0316 µM
[24] = second compound 10 µM, first compound 0.1 µM
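Further: spheroids exposed to compounds for 7 days.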

Which results are given for `CC[C@@]1(O)C(=O)OCc2c1cc1n(c2=O)Cc2cc3c(CN(C)C)c(O)ccc3nc2-1` + Cc1cccc(N(C)C(=O)C2C(O)CCN2c2nc(C)cc(C(F)(F)F)c2C#N)c1?
IC50 (second compound 0.0316 µM): > 100 nM; IC50 (second compound 0.1 µM): > 100 nM; IC50 (second compound 0.316 µM): > 100 nM; IC50 (second compound 1 µM): > 100 nM; IC50 (second compound 3.16 µM): > 100 nM; IC50 (second compound 10 µM): > 100 nM; viability, T/C (second compound 0.0316 µM, first compound 0.000316 µM): 112%; viability, T/C (second compound 0.0316 µM, first compound 0.001 µM): 103%; viability, T/C [1]: 98%; viability, T/C [2]: 93.5%; viability, T/C [3]: 72%; viability, T/C [4]: 65.5%; viability, T/C (second compound 0.1 µM, first compound 0.000316 µM): 111%; viability, T/C (second compound 0.1 µM, first compound 0.001 µM): 112%; viability, T/C [5]: 93.4%; viability, T/C [6]: 93%; viability, T/C [7]: 73.2%; viability, T/C [8]: 68.1%; viability, T/C (second compound 0.316 µM, first compound 0.000316 µM): 117%; viability, T/C (second compound 0.316 µM, first compound 0.001 µM): 104%; viability, T/C [9]: 103%; viability, T/C [10]: 100%; viability, T/C [11]: 74.9%; viability, T/C [12]: 62.4%; viability, T/C (second compound 1 µM, first compound 0.000316 µM): 100%; viability, T/C (second compound 1 µM, first compound 0.001 µM): 98%; viability, T/C [13]: 99.5%; viability, T/C [14]: 94.2%; viability, T/C [15]: 81.8%; viability, T/C [16]: 61.7%; viability, T/C (second compound 3.16 µM, first compound 0.000316 µM): 108%; viability, T/C (second compound 3.16 µM, first compound 0.001 µM): 99.3%; viability, T/C [17]: 98.8%; viability, T/C [18]: 101%; viability, T/C [19]: 71.6%; viability, T/C [20]: 55.3%; viability, T/C (second compound 10 µM, first compound 0.000316 µM): 99.9%; viability, T/C (second compound 10 µM, first compound 0.001 µM): 95.3%; viability, T/C [21]: 90.5%; viability, T/C [22]: 87.6%; viability, T/C [23]: 83%; viability, T/C [24]: 63.6%

How did the IC50 (second compound 0.0316 µM) turn out when `COc1cccc(OCCCN)c1-c1cc(Nc2cnc(C#N)cn2)n[nH]1` + Cc1cccc(N(C)C(=O)C2C(O)CCN2c2nc(C)cc(C(F)(F)F)c2C#N)c1 was run?
The IC50 was 10.6 nM.

And the IC50 (second compound 0.1 µM)?
The IC50 was 20.7 nM.

And the IC50 (second compound 0.316 µM)?
Its IC50 is 10.6 nM.

What about the IC50 (second compound 1 µM) of the same molecule?
Its IC50 is 9.08 nM.

What about the IC50 (second compound 3.16 µM) of the same molecule?
Its IC50 is 8.91 nM.

What about the IC50 (second compound 10 µM) of the same molecule?
The IC50 was 9.02 nM.

What about the viability, T/C [1] of the same molecule?
Its viability, T/C is 71.8%.

And the viability, T/C [2]?
The viability, T/C was 51.3%.

What about the viability, T/C [3] of the same molecule?
The viability, T/C was 42.9%.

What about the viability, T/C [4] of the same molecule?
Its viability, T/C is 44.4%.

And the viability, T/C (second compound 0.0316 µM, first compound 0.316 µM)?
Its viability, T/C is 46.4%.

What about the viability, T/C (second compound 0.0316 µM, first compound 1 µM) of the same molecule?
The viability, T/C was 45.6%.

And the viability, T/C [5]?
Its viability, T/C is 78.5%.

And the viability, T/C [6]?
The viability, T/C was 57.1%.

What about the viability, T/C [7] of the same molecule?
The viability, T/C was 42.5%.

What about the viability, T/C [8] of the same molecule?
Its viability, T/C is 46.8%.

What about the viability, T/C (second compound 0.1 µM, first compound 0.316 µM) of the same molecule?
The viability, T/C was 45.5%.

And the viability, T/C (second compound 0.1 µM, first compound 1 µM)?
The viability, T/C was 48.6%.

What about the viability, T/C [9] of the same molecule?
The viability, T/C was 71.9%.

What about the viability, T/C [10] of the same molecule?
The viability, T/C was 52.2%.

What about the viability, T/C [11] of the same molecule?
Its viability, T/C is 40.9%.

What about the viability, T/C [12] of the same molecule?
The viability, T/C was 42.7%.

And the viability, T/C (second compound 0.316 µM, first compound 0.316 µM)?
The viability, T/C was 41.8%.

What about the viability, T/C (second compound 0.316 µM, first compound 1 µM) of the same molecule?
The viability, T/C was 48.7%.

What about the viability, T/C [13] of the same molecule?
The viability, T/C was 73%.

What about the viability, T/C [14] of the same molecule?
The viability, T/C was 48.5%.

And the viability, T/C [15]?
Its viability, T/C is 41.9%.

And the viability, T/C [16]?
Its viability, T/C is 44%.

What about the viability, T/C (second compound 1 µM, first compound 0.316 µM) of the same molecule?
Its viability, T/C is 41.6%.

What about the viability, T/C (second compound 1 µM, first compound 1 µM) of the same molecule?
The viability, T/C was 46.8%.

And the viability, T/C [17]?
The viability, T/C was 71.8%.

What about the viability, T/C [18] of the same molecule?
Its viability, T/C is 46.6%.

What about the viability, T/C [19] of the same molecule?
The viability, T/C was 47.5%.

What about the viability, T/C [20] of the same molecule?
The viability, T/C was 48%.

What about the viability, T/C (second compound 3.16 µM, first compound 0.316 µM) of the same molecule?
The viability, T/C was 47.8%.

And the viability, T/C (second compound 3.16 µM, first compound 1 µM)?
The viability, T/C was 47.6%.

And the viability, T/C [21]?
The viability, T/C was 76.6%.

What about the viability, T/C [22] of the same molecule?
Its viability, T/C is 47.4%.

What about the viability, T/C [23] of the same molecule?
Its viability, T/C is 45.4%.

What about the viability, T/C [24] of the same molecule?
The viability, T/C was 44.3%.

What about the viability, T/C (second compound 10 µM, first compound 0.316 µM) of the same molecule?
Its viability, T/C is 48.2%.

What about the viability, T/C (second compound 10 µM, first compound 1 µM) of the same molecule?
The viability, T/C was 48.2%.
